Laboratory results as given in the PolyMetriX glass transition set.
± gives the standard deviation of the reports.

| SMILES | glass transition temperature [°C] |
| --- | --- |
| *CC(*)(Cl)C(=O)OCCCC (repeat unit) | 42.00 |
| *Oc1ccc(Oc2ccc(Oc3ccc(Oc4ccc(OC(=O)c5cccc(C(*)=O)c5)cc4)cc3)cc2)cc1 (repeat unit) | 134.00 |
| *Oc1cccc2c(OC3(F)C(*)(F)C(F)(F)C3(F)F)cccc12 (repeat unit) | 138.00 |
| */C=C(/*)C(CCCCCCC)[Si](C)(C)C (repeat unit) | 150.00 |
| *CC(*)SC (repeat unit) [Poly(vinyl methyl sulfide) ] | -1 ± 1.2 |
| *Oc1c(-c2ccccc2)cc(Cc2cc(-c3ccccc3)c(OC(=O)CCCCC(*)=O)c(-c3ccccc3)c2)cc1-c1ccccc1 (repeat unit) | 115.00 |
| *CC(*)C(=O)OCCCOC (repeat unit) | -66.50 |
| *CC(*)OC(=O)c1ccc(Cl)cc1 (repeat unit) | 70.2 |
| *=CNc1ccc(CCc2ccc(N=*)cc2)cc1 (repeat unit) | 125.00 |
| *Oc1ccc(Oc2ccc(/C=N/c3ccc(/N=C/c4ccc(*)cc4)cc3)cc2)cc1 (repeat unit) | 117.00 |
| *CCCCCCCCCCC(=O)N* (repeat unit) | 46.00 |
| *Oc1ccc(C2(c3ccc(OC(=O)OC4C(C)(C)C(OC(*)=O)C4(C)C)cc3)CCC(C(C)(C)C)CC2)cc1 (repeat unit) | 172.00 |
| *Nc1ccc(NC(=O)c2cccc(C(*)=O)c2)cc1 (repeat unit) | 295.00 |
| *c1ccc2c(c1)Sc1cc(-c3ccc(-c4ccc(*)s4)s3)ccc1N2CCCCCC (repeat unit) | 140.00 |
| *Oc1cc(C(C)(C)C)c(Oc2ccc(C(=O)Nc3c(C)cc(C(C)(C)c4cc(C)c(NC(=O)c5ccc(*)cc5)c(C)c4)cc3C)cc2)cc1C(C)(C)C (repeat unit) | 295.00 |
| *CC(*)(C)C(=O)OCCCCCCOc1ccc(OC(=O)c2ccc(OC)cc2)cc1 (repeat unit) | 38.00 |
| *CC(*)c1ccc([Si](C)(C)O[Si](C)(C)C)cc1 (repeat unit) | 35.50 |
| *CC(*)c1ccccc1F (repeat unit) | 160.50 |
| *Oc1ccc(C(C)(C)c2ccc(OC(=O)c3ccc(C(*)=O)cc3)c(CCCC)c2)cc1CCCC (repeat unit) | 160.00 |

| SMILES | glass transition temperature [°C] |
| --- | --- |
| *Oc1ccc(C(=O)OCCCCCCOC(=O)c2ccc(*)cc2)cc1 (repeat unit) | 15.00 |
| *CCCCCCSS* (repeat unit) | -74.00 |
| *CCCOC(=O)Nc1ccc(Cc2ccc(NC(=O)O*)cc2)cc1 (repeat unit) | 119.00 |
| *CCN(*)CCOCCOC (repeat unit) | 16.00 |
| *C(=O)c1ccc(Oc2ccc(C(C)(C)c3ccc(Oc4ccc(*)s4)cc3)cc2)cc1 (repeat unit) | 151.00 |
| *O[Si](C)(C)CCCC(=O)Oc1ccc(/C=N/c2ccc(Oc3ccc(/N=C/c4ccc(OC(=O)CCC[Si](*)(C)C)cc4)cc3)cc2)cc1 (repeat unit) | 52.00 |
| *CC1(C)CC(*)(C)C(=O)OC1=O (repeat unit) | 144.00 |
| *CC(*)(C)C(=O)NC(=O)Oc1c(Br)cc(S(=O)(=O)c2cc(Br)c(O)c(Br)c2)cc1Br (repeat unit) | 116.00 |
| *CC(*)(CC(=O)OCCCCCC)C(=O)OCCCCCC (repeat unit) | -7.00 |
| *CC(*)(C)C(=O)OCCCCCCOc1ccc(C(=O)Oc2ccc(/N=N/c3ccc(F)cc3)c3ccccc23)cc1 (repeat unit) | 42.00 |
| */C(=C(\[2H])C([2H])([2H])C(*)([2H])[2H])C([2H])([2H])[2H] (repeat unit) | -58.00 |
| *Oc1ccc(C(C)(C)c2ccc(Oc3ccc(C(=O)C(=O)c4ccc(*)cc4)cc3)cc2)cc1 (repeat unit) | 152.00 |
| *C(=O)Nc1ccc(S(=O)(=O)c2ccc(NC(=O)c3ccc4c(c3)C(=O)N(c3cccc(P(=O)(c5ccccc5)c5cccc(N6C(=O)c7ccc(*)cc7C6=O)c5)c3)C4=O)cc2)cc1 (repeat unit) | 241.00 |
| *c1ccc(C(=O)OCCCCCCCCCCOc2ccc(/C=C/C(=O)/C=C/c3ccc(OCCCCCCCCCCOC(=O)c4ccc(-c5nnc(*)o5)cc4)cc3)cc2)cc1 (repeat unit) | 58.00 |
| *CC(*)OC(C)C (repeat unit) [Poly(vinyl isopropyl ether) ] | -4 ± 2.3 |
| */N=N/c1ccc([Te]c2ccc(*)cc2)cc1 (repeat unit) | 300.00 |
| *C([2H])([2H])C(*)([2H])Cl (repeat unit) | 85.00 |
| *CC(*)(C)C(=O)OCc1ccc(OCCOCCOCCOCC)c(OCCOCCOCCOCC)c1 (repeat unit) | -92.00 |
| *CCN(CCOC(=O)Nc1ccc(C)c(NC(=O)O*)c1)c1ccc(/C=C/c2cc[n+](CCCC)cc2)cc1 (repeat unit) | 121.00 |

Next, values leading:

| glass transition temperature [°C] | SMILES |
| --- | --- |
| 208.00 | *c1ccc(Oc2ccc(C(=O)c3cccc(C(=O)c4ccc(Oc5ccc(N6C(=O)c7ccc(Oc8ccc9c(c8)C(=O)N(*)C9=O)cc7C6=O)cc5)cc4)c3)cc2)cc1 (repeat unit) |
| 233.00 | *c1ccc(Oc2ccc(Oc3ccc(N4C(=O)c5ccc(Oc6ccc(C7(c8ccc(Oc9ccc%10c(c9)C(=O)N(*)C%10=O)cc8)CCC(C(C)(C)C)CC7)cc6)cc5C4=O)cc3)c(C(C)(C)C)c2)cc1 (repeat unit) |
| 341.00 | *c1ccc(N2C(=O)c3ccc(-c4ccc5c(c4)C(=O)N(*)C5=O)cc3C2=O)cc1 (repeat unit) |
| 163.00 | *Oc1ccc2ccc(Oc3ccc(C(=O)Nc4ccc(Oc5ccc(C(c6ccc(Oc7ccc(NC(=O)c8ccc(*)cc8)cc7)cc6)(C(F)(F)F)C(F)(F)F)cc5)cc4)cc3)cc2c1 (repeat unit) |
| 346.00 | *Oc1ccc(Sc2ccc(Oc3ccc4c(=O)n5c6cc(Oc7ccc8c(c7)nc7c9ccc(*)c%10cccc(c(=O)n87)c%109)ccc6nc5c5cccc3c45)cc2)cc1 (repeat unit) |
| 298.00 | *c1ccc(Oc2ccc(NC(=O)c3ccc4c(c3)C(=O)N(c3ccc(Sc5ccc(N6C(=O)c7ccc(C(=O)Nc8ccc(Oc9ccc(C%10(*)NC(=O)c%11ccccc%11%10)cc9)cc8)cc7C6=O)cc5)cc3)C4=O)cc2)cc1 (repeat unit) |
| 249.50 ± 20 | *C(=O)c1ccc2c(c1)C(=O)N(c1cccc(Cc3cccc(N4C(=O)c5ccc(*)cc5C4=O)c3)c1)C2=O (repeat unit) |
| 279.00 | *c1ccc(N(c2ccc(C#N)cc2)c2ccc(N3C(=O)c4ccc(Oc5ccc(C6(c7ccc(Oc8ccc9c(c8)C(=O)N(*)C9=O)cc7)c7ccccc7-c7ccccc76)cc5)cc4C3=O)cc2)cc1 (repeat unit) |
| 275.00 | *C(=O)NC1CCC(CC2CCC(NC(=O)c3ccc(N4C(=O)c5ccc(*)cc5C4=O)cc3)CC2)CC1 (repeat unit) |
| 195.00 | *Nc1ccc(Cc2ccc(NC(=O)c3cc(NC(=O)C(C(C)CC)N4C(=O)c5ccccc5C4=O)cc(C(*)=O)c3)cc2)cc1 (repeat unit) |
| 242.00 | *c1ccc(Oc2cc(C(C)(C)C)c(Oc3ccc(N4C(=O)c5ccc(Oc6ccc7c(c6)C(=O)N(*)C7=O)cc5C4=O)cc3)cc2C(C)(C)C)cc1 (repeat unit) |
| 105.00 | *C(=O)OCCCCCCCCCCCCOC(=O)c1ccc2c(c1)C(=O)N(c1ccc(Oc3ccc(N4C(=O)c5ccc(*)cc5C4=O)cc3)cc1)C2=O (repeat unit) |
| 257.00 | *c1ccc2c(c1)C(=O)N(c1ccc(Sc3ccc(Sc4ccc(N5C(=O)c6ccc(C(*)(C(F)(F)F)C(F)(F)F)cc6C5=O)cc4)cc3)cc1)C2=O (repeat unit) |
| 285.00 | *c1ccc(Oc2ccc(Oc3ccc(N4C(=O)c5ccc(-c6cccc7c6C(=O)N(*)C7=O)cc5C4=O)cc3)cc2)cc1 (repeat unit) |
| 194.00 | *c1ccc(NC(=O)CCCCC(=O)Nc2ccc(S(*)(=O)=O)cc2)cc1 (repeat unit) |
| 195.00 | *CCCCCC(=O)Nc1ccc(Oc2ccc(NC(=O)CCCCCN3C(=O)c4ccc(C(=O)c5ccc6c(c5)C(=O)N(*)C6=O)cc4C3=O)cc2)cc1 (repeat unit) |
| 272.00 | *Oc1ccc(NC(=O)c2cc(C(=O)Nc3ccc(Oc4ccc(C5(c6ccc(*)cc6)CC6CCC5C6)cc4)cc3)cc(C(C)(C)C)c2)cc1 (repeat unit) |
| 202.70 | *c1ccc(Cc2ccc(N3C(=O)c4cccc5c(N6CCC(CCCC7CCN(c8ccc9c%10c(cccc8%10)C(=O)N(*)C9=O)CC7)CC6)ccc(c45)C3=O)c(C(C)(C)C)c2)cc1C(C)(C)C (repeat unit) |
| 307.00 | *C(=O)Nc1ccc(S(=O)(=O)c2ccc(NC(=O)c3ccc4c(c3)C(=O)N(c3ccc(S(=O)(=O)c5ccc(N6C(=O)c7ccc(*)cc7C6=O)cc5)cc3)C4=O)cc2)cc1 (repeat unit) |
| 201.00 | *c1ccc(Oc2c(C)cc(C(c3cccnc3)c3cc(C)c(Oc4ccc(N5C(=O)CC(Nc6ccc(Cc7ccc(NC8CC(=O)N(*)C8=O)cc7)cc6)C5=O)cc4)c(C)c3)cc2C)cc1 (repeat unit) |
| 190.00 | *Oc1ccc(S(=O)(=O)c2ccc(Oc3ccc(C4(c5ccc(Oc6ccc(S(=O)(=O)c7ccc(Oc8ccc(/C=C9\CCC/C(=C\c%10ccc(*)cc%10)C9=O)cc8)cc7)cc6)cc5)CCCCC4)cc3)cc2)cc1 (repeat unit) |
| 317.00 | *C(=O)c1ccc2c(c1)C(=O)N(c1ccc(Cc3ccc(Cc4cccc(N5C(=O)c6ccc(*)cc6C5=O)c4)cc3)cc1)C2=O (repeat unit) |
| 405.00 ± 36 | *c1ccc(N2C(=O)c3ccc(-c4cccc5c4C(=O)N(*)C5=O)cc3C2=O)cc1 (repeat unit) |
| 196.00 | *Oc1ccc(S(=O)(=O)c2ccc(Oc3ccc(C4(c5ccc(Oc6ccc(S(=O)(=O)c7ccc(Oc8ccc(/C=C9\CCCC/C(=C\c%10ccc(*)cc%10)C9=O)cc8)cc7)cc6)cc5)CCCCCC4)cc3)cc2)cc1 (repeat unit) |
